One series has as its target PGP (Homo sapiens, UniProt P08183). The series is described as follows: PGP-factor (Table 1). It counts as in vitro ADME.
The next series is described as follows: Permeability (Table 1). It is filed as in vitro ADME.
The target in another series is phosphodiesterase PDE4. As to the kind of experiment: phosphodiesterase PDE4 inhibition (enzyme profiling). It is filed as biochemical. The following applies: read-out: calculated pKi of the PDE4 inhibition (converted). The source says: (§1) The phosphodiesterase PDE4 inhibiting activity may be used for titration purposes of patients. The phosphodiesterase PDE4 inhibiting activity of the compounds described herein prevents overdosage of the selective A1 antagonist by alarming the patients with self-evident, non-serious signals like e.g. headache before serious events like e.g. CNS convulsion can occur.

Series [1] relates to phosphodiesterases (PDE 1, 2, 3, 5 and 6). The series is described as follows: inhibition of other phosphodiesterases (enzyme profiling). It counts as biochemical. The note with it: relative to PDE4 inhibition.
Text: as §1

The target in the next series is T1, adenosine A1 receptor (Homo sapiens, UniProt P30542).
T1 sequence (P30542 1-326): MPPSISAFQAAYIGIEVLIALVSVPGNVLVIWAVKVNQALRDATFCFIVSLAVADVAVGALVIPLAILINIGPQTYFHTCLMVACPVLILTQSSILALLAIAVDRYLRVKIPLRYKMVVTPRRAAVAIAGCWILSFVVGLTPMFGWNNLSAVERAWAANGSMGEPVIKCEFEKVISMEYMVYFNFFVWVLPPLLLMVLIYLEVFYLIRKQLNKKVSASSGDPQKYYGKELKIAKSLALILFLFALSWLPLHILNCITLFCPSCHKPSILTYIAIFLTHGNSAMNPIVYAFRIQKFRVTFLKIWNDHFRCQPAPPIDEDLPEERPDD
The series is described as follows: receptor binding and enzyme profiling in a wide range of assays.
Text: as §1

Series [2] in a line: steady-state plasma levels in anesthetized L-NAME pretreated rats. It counts as in vivo, Sprague-Dawley rats. The note with it: rat. The method, then: The radiocontrast media-dependent acute kidney failure was induced using an experimental protocol based on that published by the group of Osswald,^22 Male Sprague-Dawley rats of approximately 300 g body weight were acclimatized for at least 1 week before the start of the chronic pretreatment with the nitric oxide synthase inhibitor N-nitro-L-arginine methyl ester (L-NAME for 7-9 weeks at a daily dose of 5 mg/kg). For the experiments, the overnight fasted rats (which had continued free access to drinking water) were anesthetized with Inactin (80 mg/kg, given i.p. as a bolus). Catheters were placed (i) in the trachea, (ii) in one jugular vein (for radiocontrast medium administration, and background saline infusion; see below), (iii) in the other jugular vein for vehicle or sunstance 1 administration, (iv) in the carotid artery for blood sampling, and part of the background saline infusion; see below), and (v) in the bladder for urine collection. The rats were kept on a heated table to maintain their body temperature at 37° C. […] The measured values of urine volume, and urine levels of Na^+ were used to calculate the rates of diuresis and natriuresis over the time intervals mentioned above.

For series [3], the system named is radiocontrast media-dependent acute kidney failure. As to the kind of experiment: diuresis and natriuresis following radiocontrast media (diatrizoate) in anesthetized rats. It is filed as in vivo, Sprague-Dawley rats. The following applies: for diuresis / sodium excretion: mean ± SEM. How it is done: The radiocontrast media-dependent acute kidney failure was induced using an experimental protocol based on that published by the group of Osswald,^22 Male Sprague-Dawley rats of approximately 300 g body weight were acclimatized for at least 1 week before the start of the chronic pretreatment with the nitric oxide synthase inhibitor N-nitro-L-arginine methyl ester (L-NAME for 7-9 weeks at a daily dose of 5 mg/kg). For the experiments, the overnight fasted rats (which had continued free access to drinking water) were anesthetized with Inactin (80 mg/kg, given i.p. as a bolus). Catheters were placed (i) in the trachea, (ii) in one jugular vein (for radiocontrast medium administration, and background saline infusion; see below), (iii) in the other jugular vein for vehicle or sunstance 1 administration, (iv) in the carotid artery for blood sampling, and part of the background saline infusion; see below), and (v) in the bladder for urine collection. The rats were kept on a heated table to maintain their body temperature at 37° C. After collecting urine samples for 60-90 min for baseline measurements, the animals received vehicle or substance 1 as follows: a loading bolus of 0.15, or 1.5 mg substance 1 per kg, or vehicle, in a volume of 1 mukg, was applied intravenously, followed by a continuous intravenous infusion at a rate of […] substance 1 per kg per min, or vehicle, in a volume of 11 μL/kg·min until the end of the experiment. With these dose regimens steady-state plasma levels of substance 1 were 59±23, and 314±36 ng/mL, respectively. Ten minutes after the start of the substance 1 (or vehicle) treatment, diatrizoate (meglumine salt, Urolux, 0.61 g diatrizoate/mL, corresponding to a total iodine content of 290 mg/mL, Sanochemia Diagnostics, Neuss, Germany), prewarmed at body temperature, was infused iv over 3 min at a dose of 2.55 mL/kg, corresponding to 740 mg iodine/kg (the timepoint of contrast medium administration was defined as t0). A background saline solution was infused from the beginning and maintained at a rate of ˜1.2 mL/h per 100 g until the end of the experiments (0.24 mL/h via the arterial catheter, and 0.96 mL/h via the venous line). This infusion was required to compensate for the volume loss due to the operation, and the subsequent blood sampling, but also to insure the patency of the arterial catheter between the blood sampling timepoints. Urine samples were collected according to the following schedule: baseline (60-90 min preceding the start of substance 1, or vehicle, administration), t0-30 min (0.5 h timepoint), 30-60 min (1 h timepoint), 60-120 min (2 h timepoint), and 120-180 min (3 h timepoint). Plasma samples were taken at the end of each of the above periods. The measured values of urine volume, and urine levels of Na^+ were used to calculate the rates of diuresis and natriuresis over the time intervals mentioned above.

The subject of series [4] is renal hemodynamics and oxygenation. As to the kind of experiment: renal blood flow and oxygenation following radiocontrast media (iodixanol) in anesthetized rats. It is filed as in vivo, Wistar rats. The method, then:
The experimental protocol was based on a previously published methodology. The experiments were performed using adult male 3-4 months old Wistar rats. Body weight ranged from 250 to 400 g. The rats received a standard chow diet. Feeding and drinking was discontinued approx. 12 hours before the surgery. The animals were anesthetized by intraperitoneal injection of urethane solution ([…]; 6 ml per kg), and placed on a heated table to maintain body temperature at 37° C. throughout surgery and subsequent experiments. After an incision in the left groin the femoral artery was carefully prepared and cannulated to measure the mean arterial blood pressure. Another catheter was placed into the carotid artery for administration of contrast medium. Finally, an inflatable cuff was placed around the abdominal aorta above the origin of the renal arteries. A servo controlled inflation of the cuff allowed for the reduction and maintenance of the renal perfusion pressure at a preset levels. Two 500 μm diameter optical fibers were implanted into the cortex and the outer medulla of left kidney to determine local laser-Doppler fluxes and an ultrasound transit time flowprobe was placed around the renal artery of the same kidney to determine total kidney blood flow (RBF). Renal oxygen levels (oxygen partial pressure=pO2) was likewise determined locally (cortical and medullary pO2, respectively; OxyLite, Oxford Optronics). After implantation and stabilization, the experiment was started by measuring hemodynamic and oxygenation parameters under baseline conditions. Vehicle or substance 1 (5 mg/kg as an intravenous bolus) were then administered. New measurements were performed, and 30 min after vehicle or substance 1 administration, lodixanol (Visipaque 320; 1.5 mL i.a.; Amersham Buchier, Braunschweig, Germany), or vehicle was applied. The experimental groups were thus: 1. Vehicle+Vehicle (‘control’), Vehicle+Visipaque, and sunstance 1+Visipaque.

Series [5] concerns radiocontrast media induced nephropathy. The following applies: Shammas, 2001, Welch, 2002, Huber; cited from earlier work.
[6] abbreviates: Low dose, 0.5 h after CM (diatrizoate).
Setting [7] is: Low dose, 1 h after CM (diatrizoate).
Setting [8] is: Low dose, 2 h after CM (diatrizoate).
Where [9] appears, read: Low dose, 3 h after CM (diatrizoate).
The mark [10] stands for this setting: high dose, 0.5 h after CM (diatrizoate).
Setting [11] is: high dose, 1 h after CM (diatrizoate).
[12] abbreviates: high dose, 2 h after CM (diatrizoate).
Where [13] appears, read: high dose, 3 h after CM (diatrizoate).

The text below walks through data of patent publication US20080027082A1, “USE OF ADENOSINE A1 ANTAGONISTS IN RADIOCONTRAST MEDIA INDUCED NEPHROPATHY” (priority 2006, published 2008).

Chain of PGP (P08183 whole entry): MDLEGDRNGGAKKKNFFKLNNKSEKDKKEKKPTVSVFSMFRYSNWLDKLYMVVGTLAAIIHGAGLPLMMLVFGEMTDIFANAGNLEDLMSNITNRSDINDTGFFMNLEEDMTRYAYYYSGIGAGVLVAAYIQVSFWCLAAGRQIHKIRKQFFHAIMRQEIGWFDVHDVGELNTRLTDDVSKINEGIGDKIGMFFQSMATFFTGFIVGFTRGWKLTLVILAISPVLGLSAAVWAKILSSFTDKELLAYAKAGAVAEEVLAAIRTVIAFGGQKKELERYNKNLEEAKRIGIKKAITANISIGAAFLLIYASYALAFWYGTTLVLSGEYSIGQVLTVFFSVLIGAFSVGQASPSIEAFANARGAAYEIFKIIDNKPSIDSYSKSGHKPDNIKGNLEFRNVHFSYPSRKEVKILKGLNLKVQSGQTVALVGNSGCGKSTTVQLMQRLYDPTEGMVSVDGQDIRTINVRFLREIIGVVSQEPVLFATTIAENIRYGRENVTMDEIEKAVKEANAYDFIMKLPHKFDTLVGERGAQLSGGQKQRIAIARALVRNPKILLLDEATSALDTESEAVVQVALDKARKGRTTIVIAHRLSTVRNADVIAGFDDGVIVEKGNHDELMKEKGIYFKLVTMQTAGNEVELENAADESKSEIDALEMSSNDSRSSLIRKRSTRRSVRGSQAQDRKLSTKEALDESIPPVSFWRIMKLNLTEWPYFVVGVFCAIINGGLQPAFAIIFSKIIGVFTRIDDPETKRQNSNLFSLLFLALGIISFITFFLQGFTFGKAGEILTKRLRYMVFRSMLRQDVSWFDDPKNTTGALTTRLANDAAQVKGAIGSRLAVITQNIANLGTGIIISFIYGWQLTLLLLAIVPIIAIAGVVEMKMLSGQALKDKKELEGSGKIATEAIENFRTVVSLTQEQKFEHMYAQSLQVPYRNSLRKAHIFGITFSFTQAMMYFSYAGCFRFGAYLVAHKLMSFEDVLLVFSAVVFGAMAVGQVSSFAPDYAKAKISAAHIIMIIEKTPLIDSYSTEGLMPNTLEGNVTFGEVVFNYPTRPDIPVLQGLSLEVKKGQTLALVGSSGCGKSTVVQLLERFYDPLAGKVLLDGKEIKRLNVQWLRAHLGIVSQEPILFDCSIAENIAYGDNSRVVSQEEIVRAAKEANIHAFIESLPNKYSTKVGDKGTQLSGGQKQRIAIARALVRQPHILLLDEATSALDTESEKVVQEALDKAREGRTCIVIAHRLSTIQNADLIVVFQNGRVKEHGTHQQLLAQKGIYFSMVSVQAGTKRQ

At PGP, `CS(=O)(=O)O.OC1CCC(Nc2nc(-c3ccccc3)nc3[nH]ccc23)CC1` (stereo not drawn) [substance 1, 4-[(2-phenyl-7H-pyrrolo[2,3-o]pyrimidin-4-yl)amino]-trans-cyclohexanol methanesulfonate] displayed a PGP-factor of 1.5. In “Permeability (Table 1)”, the “Permeability (%)” value is 37.4%. In addition, the Ki on phosphodiesterase PDE4 is 750 nM. The “activities on other phosphodiesterases (PDE 1, 2, 3, 5 and 6), fold lower than on PDE4” value in series [1] is “at least 25 fold”. Besides, on adenosine A1 receptor, the “conclusion from receptor binding and enzyme profiling” value was “selective adenosine A1 receptor ligand with some phosphodiesterase PDE4 inhibiting activity”. For the same molecule, the steady-state plasma level came out at 59 ± 23 ng/mL in series [2] (iv loading bolus 0.15 mg/kg, then infusion 1.5 pg per kg per min (so in the source)) and 314 ± 36 ng/mL in [2] (iv loading bolus 1.5 mg/kg, then infusion 15 pg per kg per min (so in the source)). Also, the diuresis is given as 27.31 ± 2.36 mL per kg body weight per h in [3] (setting [6]); 3.87 ± 0.40 mL per kg body weight per h in [3] (setting [7]); 3.34 ± 0.42 mL per kg body weight per h in series [3] (setting [8]); 3.54 ± 0.50 mL per kg body weight per h in series [3] (setting [9]); 28.01 ± 2.02 mL per kg body weight per h in series [3] (setting [10]); 4.97 ± 0.30 mL per kg body weight per h in series [3] (setting [11]). Besides, the diuresis is recorded as 3.13 ± 0.27 mL per kg body weight per h in series [3] (setting [12]) and 3.11 ± 0.36 mL per kg body weight per h in series [3] (setting [13]). Further, the sodium excretion in series [3] (setting [6]) was 3039 ± 354 μmol per kg body weight per h; in series [3] (setting [7]), 338 ± 81 μmol per kg body weight per h; in [3] (setting [8]), 613 ± 121 μmol per kg body weight per h; in [3] (setting [9]), 842 ± 121 μmol per kg body weight per h; in [3] (setting [10]) it was 3301 ± 306 μmol per kg body weight per h; in series [3] (setting [11]) it was 520 ± 77 μmol per kg body weight per h. For the same molecule, the sodium excretion is on record as 591 ± 88 μmol per kg body weight per h in [3] (setting [12]) and 830 ± 91 μmol per kg body weight per h in series [3] (setting [13]). Further, the “persistence of the stimulating effect on diuresis” value in series [3] (after contrast medium (diatrizoate) administration) is recorded as “at least 3 h”. For the same molecule, the potassium excretion result in series [3] (after diatrizoate, throughout the experiment, not shown) is given as “not relevantly affected”. Further, the chloride excretion result in [3] (after diatrizoate, not shown) is “stimulated”. Also, in series [4] (substance 1 5 mg/kg iv + Visipaque (FIG. 4)), the “renal cortical vascular conductance” value was “maintained this parameter at levels seen in the vehicle control group”. In series [4] (substance 1 5 mg/kg iv + Visipaque, until the end of the experiment (FIG. 5)), the “cortical pO2” value is given as “significant increase”. Besides, the “renal cortical blood flow” value in series [4] (substance 1 5 mg/kg iv + Visipaque, vs. Vehicle+Visipaque, 20 min measurement (FIG. 3)) was “sustained and significant increase”. Besides, the “effect on Visipaque-induced changes of medullary blood flow and medullary vascular conductance” value in series [4] (substance 1 5 mg/kg iv + Visipaque, not shown) was “only partially (but significantly) prevented these effects”. In addition, in series [4] (substance 1 5 mg/kg iv bolus 30 min before Visipaque 1.5 mL i.a., not shown), the “effect on the Visipaque-induced increase in mean arterial blood pressure” value is given as “partially prevented”. Besides, the “hemodynamic parameters (arterial blood pressure, RBF) before the Visipaque challenge” value in [4] (substance 1 5 mg/kg iv bolus, not shown) is on record as “did not modify”.

On to `Cn1c(=O)c2[nH]cnc2n(C)c1=O` [Aminophylline], for which the “protection against radiocontrast media induced nephropathy” value in [5] is “does not appear to add a protective role”.

`CS(=O)(=O)O.NC(=O)[C@@H]1C[C@H](O)CN1c1nc(-c2ccccc2)nc2[nH]ccc12` [substance 2, (4S)-4-hydroxy-1-(2-phenyl-7H-pyrrolo[2,3-a]pyrimidin-4-yl)-L-prolinamide methanesulfonate] gave a PGP-factor on PGP of 10.1. Further, the “Permeability (%)” value in “Permeability (Table 1)” came out at 27.0%.

Turning to `Cn1c(=O)c2[nH]cnc2n(C)c1=O` [theophylline], in series [5], the “protection against radiocontrast media induced nephropathy” value is “effective”.

At PGP, `CCCn1c(=O)c2[nH]c(C34CC5CC(CC3C5)C4)nc2n(CCC)c1=O` [KW3902, reference compound] yielded a PGP-factor of 1.4. The “Permeability (%)” value in the series “Permeability (Table 1)” came out at 31.1%.
